Assay results published in US20240226155A1, “Methods and Products for Reducing HIV Reservoirs” (The Regents of the University of California, priority 2023, published 2024).
Entries after “also recorded” stand apart in the source; their conditions may differ.

Key:
barcoded HIV NL-HABC = test: Kick and kill: SUW133 and NK cells in NL-HABC-infected mice on ART, then ART interruption; format: in vivo, TKO-BLT mice
Description: To determine whether combining a robust LRA with NK cells would effectively diminish the viral reservoir, as NK cells might eliminate cells induced to express virus due to the LRA activity, the following was performed. BLT mice were infected with NL-HABC, followed by ART to halt productive infection (FIG. 21, FIG. 64). Once mice were suppressed on ART, a subset of mice received a single intraperitoneal injection of 2 μg of SUW133 per mouse to reverse latency, followed by an intravenous injection of 5×10^6 allogeneic human NK cells eight hours later. Reactivation and killing of activated infected cells was allowed to occur while the mice were maintained on ART. ART was then discontinued, and mice were concurrently administered one more intravenous injection of 5×10^6 NK cells. A subset of control mice received SUW133, but no NK cell injections. All remaining control mice received DMSO as a vehicle control instead of SUW133. A subset of the mice receiving DMSO also received NK cell injections. Plasma viral loads were monitored after ART interruption for 12.1 weeks (FIG. 22). In these experiments, TKO-BLT mice, which can be robustly infected with HIV and are less susceptible to GVHD compared to NSG-BLT, were used and allowed monitoring the mice after ART interruption for a longer interval.
RNA was extracted from the barcoded virus supernatant using QIAamp Viral RNA Mini Kit (Qiagen) and from cells using RNeasy MiniKit (Qiagen). cDNA was generated using SuperScript IV First-Strand Synthesis Kit (Invitrogen). The same amount of input RNA that was used for viral load measurement was also used for cDNA synthesis for barcode analysis. The barcode region was amplified by hemi-nested PCR using Phusion High-Fidelity DNA Polymerase (ThermoFisher Scientific). Each RNA molecule was tagged with a Primer ID using methods in the art. Primer ID removal and cDNA purification was performed using an Purelink Quick PCR Purification Kit (Invitrogen) and methods in the art. […] Deep sequencing was performed with Illumina HiSeq3000 PE150. Sequencing depth was 10-fold higher than viral genome copies. Raw sequencing reads were de-multiplexed using the six-nucleotide ID. Sequencing error within the barcode region was corrected by filtering out low quality reads (quality score<30) and un-matched base-pairs between forward and reverse reads. PrimerIDs were used to correct sequencing errors. The frequency of Primer ID reads followed a bi-modal distribution (FIG. 53). The Primer IDs were filtered using the frequency cutoff between the Poisson distribution of errors and normal distribution of real Primer IDs. For each Primer ID, the most frequently observed barcode was called. Similar barcodes were then grouped into clusters. […]

HIV = details: cited from earlier work

Compound: C=C1C[C@H]2C[C@]3(O)O[C@H](C[C@@H](O)CC(=O)O[C@@H](CO)C[C@@H]4C/C(=C\C(=O)OC)[C@H](OC(=O)CCCCCCC)[C@@](O)(O4)C(C)(C)/C=C/[C@@H](C1)O2)C[C@H](OC(C)=O)C3(C)C [SUW133]
- delay to rebound after ART interruption (Kaplan-Meier, log-rank) (barcoded HIV NL-HABC; combination vs other groups (P=0.012 vs DMSO, 0.0037 vs SUW133, 0.09 vs NK), single agents vs DMSO (P=0.59, 0.47)): did not demonstrate a significant delay in rebound
- mean unique barcodes per mouse (barcoded HIV NL-HABC; deep sequencing of rebounding viral RNA, DMSO alone 4.7): 4.1
- CD69 expression on peripheral CD4+ T cells in the blood (barcoded HIV NL-HABC; five days after administration of SUW133): significant increase; also recorded: significantly elevated
- rebound viremia during the lengthened interval of ART interruption (barcoded HIV NL-HABC; monitored about 12 weeks): eventually rebound; also recorded: rebounded
- replication-competent virus from splenocytes in ex vivo cultures (HIV; SUW133-treated mice, prior studies): generated replication-competent virus
- delay of rebound viremia after ART interruption (HIV; SUW133 alone, prior studies): up to two to four weeks
- time of maximal CD69 expression on CD4+ T cells in vivo (HIV; post-SUW133 injection, previous report): approximately one to two days
- time CD69 can be detected on CD4+ T cells in vivo (HIV; post-injection, previous report): up to nine days
- CD4+ T cell activation and latency reversal in vivo (HIV; single administration): activated CD4^+ T cells and reversed latency in vivo
